{"source": "patent US9545413B2", "about": "“Methods of forming ciclopirox or derivatives thereof in a subject by administration of prodrug” (The University of Kansas, priority 2010, dated 2017)", "key": {"[1]": {"assay": "Mouse plasma ciclopirox pharmacokinetics after 10 mg/kg IV bolus", "format": "in vivo", "conditions": "in vivo, iv, 10 mg/kg", "description": "The plasma ciclopirox concentrations in (ng/mL) were determined following bolus administration of ciclopirox-POM prodrug at a 10 mg/kg IV bolus in a mouse model. Time points where data collected are shown in Table 1 to be at 5, 15, 30, 60, 90, 120, 180, and 240 minutes along with the data. […] The IV bolus formulation for prodrug was in 25 mM phosphate buffer.\n(§1) Time points where data collected are shown in Table 1 to be at 5, 15, 30, 60, 90, 120, 180, and 240 minutes along with the data.\nAdditionally, mouse intravenous dose pharmacokinetics were determined.\n(§2) The IV bolus and oral administrations are described above."}, "[2]": {"assay": "Mouse plasma ciclopirox pharmacokinetics after 30 mg/kg oral dose", "format": "in vivo", "conditions": "mouse, in vivo, po", "description": "The plasma ciclopirox (i.e., CPX) concentrations in (ng/mL) were determined following bolus administration of ciclopirox-POM prodrug at a 30 mg/kg orally in a mouse model. Time points where data collected are shown in Table 3 to be at 5, 15, 30, 60, 90, 120, 180, and 240 minutes along with the data. […] The oral formulation is a composition having Orasweet SF along with the […].\nas §1\nAdditionally, mouse oral dose pharmacokinetics were determined.\nas §2"}, "[3]": {"conditions": "Plasma Ciclopirox Concentrations"}, "[4]": {"conditions": "Plasma Ciclopirox Concentrations, Mean"}, "[5]": {"conditions": "30 mg/kg, Plasma Ciclopirox Concentrations"}, "[6]": {"conditions": "30 mg/kg, Plasma Ciclopirox Concentrations, Mean"}}}
{"smiles": "Cc1cc(C2CCCCC2)n(O)c(=O)c1", "note": "[Ciclopirox Olamine, reference compound]", "values": [{"measurement": "Alpha rate constant", "setting": "[1]", "value": 0.08802, "unit": "min⁻¹"}, {"measurement": "Beta rate constant", "setting": "[1]", "value": 0.01208, "unit": "min⁻¹"}, {"measurement": "Vdbeta", "setting": "[1]", "value": 4565.2, "unit": "mL/kg"}, {"measurement": "clearance", "setting": "[1]", "value": 55.2, "unit": "mL/min/kg"}, {"measurement": "AUC", "setting": "[1]; AUC (CPX AUC)", "value": 2340, "unit": "ng·h/mL"}, {"measurement": "half-life", "setting": "[1]; Alpha Half-life", "value": 7.87, "unit": "min"}, {"measurement": "half-life", "setting": "[1]; Beta Half-life", "value": 57.4, "unit": "min"}, {"measurement": "concentration at 5 min", "setting": "[1]; [3]", "value": 6090, "unit": "ng/mL"}, {"measurement": "concentration at 60 min", "setting": "[1]; [3]", "value": 171, "unit": "ng/mL"}, {"measurement": "concentration at 90 min", "setting": "[1]; [3]", "value": 45.2, "unit": "ng/mL"}, {"measurement": "concentration at 120 min", "setting": "[1]; [3]", "value": 46.1, "unit": "ng/mL"}, {"measurement": "concentration at 240 min", "setting": "[1]; [3]", "value": 12, "unit": "ng/mL"}, {"measurement": "concentration at 5 min", "setting": "[1]; [4]", "value": 4880, "unit": "ng/mL"}, {"measurement": "concentration at 15 min", "setting": "[1]; [4]", "value": 892, "unit": "ng/mL"}, {"measurement": "concentration at 30 min", "setting": "[1]; [4]", "value": 354, "unit": "ng/mL"}, {"measurement": "concentration at 60 min", "setting": "[1]; [4]", "value": 133, "unit": "ng/mL"}, {"measurement": "concentration at 90 min", "setting": "[1]; [4]", "value": 58.7, "unit": "ng/mL"}, {"measurement": "concentration at 120 min", "setting": "[1]; [4]", "value": 43.2, "unit": "ng/mL"}, {"measurement": "concentration at 180 min", "setting": "[1]; [4]", "value": 25.2, "unit": "ng/mL"}, {"measurement": "concentration at 240 min", "setting": "[1]; [4]", "value": 15.9, "unit": "ng/mL"}, {"measurement": "bioavailability", "setting": "[2]", "value": 21, "unit": "%"}, {"measurement": "AUC", "setting": "[2]; 30 mg/kg", "value": 956, "unit": "ng·h/mL"}, {"measurement": "Beta rate constant", "setting": "[2]; 30 mg/kg", "value": 0.00916, "unit": "min⁻¹"}, {"measurement": "CL/F", "setting": "[2]; 30 mg/kg", "value": 405, "unit": "mL/min/kg"}, {"measurement": "Cmax", "setting": "[2]; 30 mg/kg", "value": 548, "unit": "ng/mL"}, {"measurement": "Tmax", "setting": "[2]; 30 mg/kg", "value": 15, "unit": "min"}, {"measurement": "half-life", "setting": "[2]; 30 mg/kg", "value": 75.7, "unit": "min"}, {"measurement": "Plasma Ciclopirox Concentrations", "setting": "[2]; 30 mg/kg, 0 min", "value": 0, "unit": "ng/mL"}, {"measurement": "concentration at 0 min", "setting": "[2]; [5]", "value": 0, "unit": "ng/mL"}, {"measurement": "concentration at 15 min", "setting": "[2]; [5]", "value": 478, "unit": "ng/mL"}, {"measurement": "concentration at 30 min", "setting": "[2]; [5]", "value": 427, "unit": "ng/mL"}, {"measurement": "concentration at 180 min", "setting": "[2]; [5]", "value": 78.2, "unit": "ng/mL"}, {"measurement": "concentration at 240 min", "setting": "[2]; [5]", "value": 72.3, "unit": "ng/mL"}, {"measurement": "concentration at 0 min", "setting": "[2]; [6]", "value": 0, "unit": "ng/mL"}, {"measurement": "concentration at 15 min", "setting": "[2]; [6]", "value": 548, "unit": "ng/mL"}, {"measurement": "concentration at 30 min", "setting": "[2]; [6]", "value": 449, "unit": "ng/mL"}, {"measurement": "concentration at 60 min", "setting": "[2]; [6]", "value": 309, "unit": "ng/mL"}, {"measurement": "concentration at 90 min", "setting": "[2]; [6]", "value": 260, "unit": "ng/mL"}, {"measurement": "concentration at 120 min", "setting": "[2]; [6]", "value": 151, "unit": "ng/mL"}, {"measurement": "concentration at 180 min", "setting": "[2]; [6]", "value": 80.1, "unit": "ng/mL"}, {"measurement": "concentration at 240 min", "setting": "[2]; [6]", "value": 74.7, "unit": "ng/mL"}]}
